Measurements reported in PubChem BioAssay AID328 (DTP/NCI, 2004).
Several values for one entry are separate records, joined by “and”; a condition that tells them apart may be missing. Equal values may be shown once. Inconclusive results and toxic doses are left out. Rule for the calls: active = survival T/C of 150% or more; inactive = T/C below 125% in these data. Non-standard residues stand in square brackets, D forms with d. Residues, ends and D or L forms follow the SMILES beside them. ξ: configuration not given here. ξF = NC(Cc1ccccc1)C(=O)O

System: BDF1 mice, P388 leukemia ip, median survival T/C
Test: NCI In Vivo Anticancer Drug Screen. Data for tumor model P388 Leukemia (intraperitoneal) in B6D2F1 (BDF1) mice
Conditions: endpoint: median survival time, higher = longer survival
Method in brief: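 Vehicle-dosed animals serve as the reference; survival of compound-dosed, tumour-implanted mice is divided by it.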

[1] = dose: 50.0 mg/kg/injection, schedule: Q01DX009 (ip), vehicle: saline with Tween-80
[2] = dose: 100.0 mg/kg/injection, schedule: Q01DX009 (ip), vehicle: saline with Tween-80
[3] = dose: 200.0 mg/kg/injection, schedule: Q01DX009 (ip), vehicle: saline with Tween-80
[4] = dose: 0.78 mg/kg/injection, schedule: Q01DX009 (ip), vehicle: Klucel (hydroxypropylcellulose) (HPC)
[5] = dose: 100.0 mg/kg/injection, schedule: Q04DX003 (ip), vehicle: saline with Tween-80
[6] = dose: 200.0 mg/kg/injection, schedule: Q04DX003 (ip), vehicle: saline with Tween-80
[7] = dose: 100.0 mg/kg/injection, schedule: Q04DX003 (ip), vehicle: Klucel (hydroxypropylcellulose) (HPC)
[8] = dose: 200.0 mg/kg/injection, schedule: Q04DX003 (ip), vehicle: Klucel (hydroxypropylcellulose) (HPC)
[9] = dose: 400.0 mg/kg/injection, schedule: Q04DX003 (ip), vehicle: Klucel (hydroxypropylcellulose) (HPC)
[10] = dose: 100.0 mg/kg/injection, schedule: Q01DX009 (ip), vehicle: Klucel (hydroxypropylcellulose) (HPC)
[11] = dose: 50.0 mg/kg/injection, schedule: Q01DX009 (ip), vehicle: Klucel (hydroxypropylcellulose) (HPC)

Measured: T/C

O=C(/C=C/c1ccc(OCc2ccccc2)cc1)c1ccc(Br)cc1
inactive: [1] 91 % of control | [2] 86 % of control | [3] 87 % of control

O=C1C=CC(=O)O1 (tested in a mixture with another compound)
inactive: dose: 0.19 mg/kg/injection, schedule: Q01DX009 (ip), vehicle: Klucel (hydroxypropylcellulose) (HPC) 100 % of control | dose: 0.22 mg/kg/injection, schedule: Q01DX009 (ip), vehicle: Klucel (hydroxypropylcellulose) (HPC) 95 % of control | dose: 0.39 mg/kg/injection, schedule: Q01DX009 (ip), vehicle: Klucel (hydroxypropylcellulose) (HPC) 118 % of control | dose: 0.44 mg/kg/injection, schedule: Q01DX009 (ip), vehicle: Klucel (hydroxypropylcellulose) (HPC) 90 % of control | [4] 90 % of control | dose: 0.88 mg/kg/injection, schedule: Q01DX009 (ip), vehicle: Klucel (hydroxypropylcellulose) (HPC) 95 % of control | dose: 1.3 mg/kg/injection, schedule: Q01DX009 (ip), vehicle: Klucel (hydroxypropylcellulose) (HPC) 109 % of control | dose: 1.56 mg/kg/injection, schedule: Q01DX009 (ip), vehicle: other 95 % of control | dose: 2.3 mg/kg/injection, schedule: Q04DX003 (ip), vehicle: Klucel (hydroxypropylcellulose) (HPC) 91 % of control | dose: 3.5 mg/kg/injection, schedule: Q04DX003 (ip), vehicle: Klucel (hydroxypropylcellulose) (HPC) 116 % of control | dose: 5.2 mg/kg/injection, schedule: Q04DX003 (ip), vehicle: Klucel (hydroxypropylcellulose) (HPC) 100 % of control | dose: 5.8 mg/kg/injection, schedule: Q04DX003 (ip), vehicle: Klucel (hydroxypropylcellulose) (HPC) 100 % of control | dose: 6.25 mg/kg/injection, schedule: Q01DX009 (ip), vehicle: saline 88 % of control | dose: 7.2 mg/kg/injection, schedule: Q04DX003 (ip), vehicle: Klucel (hydroxypropylcellulose) (HPC) 95 % of control | dose: 8.8 mg/kg/injection, schedule: Q04DX003 (ip), vehicle: Klucel (hydroxypropylcellulose) (HPC) 100 % of control | dose: 12.5 mg/kg/injection, schedule: Q01DX009 (ip), vehicle: saline 97 % of control | dose: 12.5 mg/kg/injection, schedule: Q04DX003 (ip), vehicle: saline 104 % of control | dose: 13.0 mg/kg/injection, schedule: Q04DX003 (ip), vehicle: Klucel (hydroxypropylcellulose) (HPC) 104 % of control | dose: 25.0 mg/kg/injection, schedule: Q04DX003 (ip), vehicle: saline 102 % of control | dose: 50.0 mg/kg/injection, schedule: Q01DX009 (ip), vehicle: saline 102 % of control and 112 % of control and 113 % of control | dose: 50.0 mg/kg/injection, schedule: Q04DX003 (ip), vehicle: saline 115 % of control and 122 % of control and 116 % of control | dose: 150.0 mg/kg/injection, schedule: Q04DX003 (ip), vehicle: saline 122 % of control | dose: 200.0 mg/kg/injection, schedule: Q01DX009 (ip), vehicle: saline 94 % of control [middle of 4 runs] | dose: 300.0 mg/kg/injection, schedule: Q01DX009 (ip), vehicle: saline 100 % of control | dose: 300.0 mg/kg/injection, schedule: Q04DX003 (ip), vehicle: saline 108 % of control and 114 % of control | dose: 400.0 mg/kg/injection, schedule: Q04DX003 (ip), vehicle: saline 121 % of control

CC(C)(C)P(c1ccccc1)c1ccccc1
inactive: dose: 50.0 mg/kg/injection, schedule: Q04DX003 (ip), vehicle: saline with Tween-80 111 % of control | [5] 107 % of control | [6] 96 % of control

CC1=C/C(=N\N=C2/C=C(C)CC(C)(C)C2)CC(C)(C)C1
inactive: [7] 104 % of control | [8] 109 % of control | [9] 100 % of control

NC(Cc1ccccc1)C(=O)NCC(=O)NCC(=O)O (stereo not drawn) (H-[ξF]-Gly-Gly-OH)
inactive: [5] 95 % of control | [6] 104 % of control | dose: 400.0 mg/kg/injection, schedule: Q04DX003 (ip), vehicle: saline with Tween-80 109 % of control

CNC(=S)N/N=C(\C)CSC/C(C)=N/NC(=S)NC
inactive: dose: 7.5 mg/kg/injection, schedule: Q01DX009 (ip), vehicle: saline with Tween-80 102 % of control | dose: 15.0 mg/kg/injection, schedule: Q01DX009 (ip), vehicle: saline with Tween-80 99 % of control and 122 % of control | dose: 30.0 mg/kg/injection, schedule: Q01DX009 (ip), vehicle: saline with Tween-80 102 % of control and 124 % of control | dose: 60.0 mg/kg/injection, schedule: Q01DX009 (ip), vehicle: saline with Tween-80 92 % of control

CC(=O)O[C@]1(C(C)=O)CC[C@H]2[C@@H]3C=C(Cl)C4=CC(=O)[C@@H]5C[C@@H]5[C@]4(C)[C@H]3CC[C@@]21C
inactive: [10] 95 % of control | [7] 104 % of control | dose: 200.0 mg/kg/injection, schedule: Q01DX009 (ip), vehicle: Klucel (hydroxypropylcellulose) (HPC) 91 % of control | [8] 108 % of control | [9] 108 % of control

Cc1ccc(C2=C(Cl)C(=O)NC2=O)s1
inactive: dose: 12.5 mg/kg/injection, schedule: Q01DX001 (ip), vehicle: saline with Tween-80 112 % of control

CC(=O)OC(C(=O)NCc1ccccc1)C(OC(C)=O)C(C)OS(C)(=O)=O (stereo not given)
inactive: [1] 98 % of control | [2] 106 % of control | [3] 89 % of control

O=C(O)C1(C(=O)O)CCC2(CCCCC2)CC1
inactive: dose: 3.12 mg/kg/injection, schedule: Q04DX003 (ip), vehicle: water 98 % of control | dose: 6.25 mg/kg/injection, schedule: Q01DX009 (ip), vehicle: water 110 % of control | dose: 6.25 mg/kg/injection, schedule: Q04DX003 (ip), vehicle: water 102 % of control | dose: 12.5 mg/kg/injection, schedule: Q01DX009 (ip), vehicle: water 94 % of control | dose: 12.5 mg/kg/injection, schedule: Q04DX003 (ip), vehicle: water 102 % of control | dose: 25.0 mg/kg/injection, schedule: Q01DX009 (ip), vehicle: water 103 % of control | dose: 25.0 mg/kg/injection, schedule: Q04DX003 (ip), vehicle: water 101 % of control and 116 % of control | dose: 50.0 mg/kg/injection, schedule: Q01DX009 (ip), vehicle: water 100 % of control | dose: 50.0 mg/kg/injection, schedule: Q04DX003 (ip), vehicle: water 101 % of control and 103 % of control | dose: 100.0 mg/kg/injection, schedule: Q04DX003 (ip), vehicle: water 90 % of control

Nc1nc(-c2ccccc2N=NN2CCN(N=Nc3ccccc3-c3nc(N)c4ccccc4n3)CC2)nc2ccccc12
inactive: [4] 100 % of control | dose: 1.56 mg/kg/injection, schedule: Q01DX009 (ip), vehicle: Klucel (hydroxypropylcellulose) (HPC) 102 % of control | dose: 3.13 mg/kg/injection, schedule: Q01DX009 (ip), vehicle: Klucel (hydroxypropylcellulose) (HPC) 111 % of control | dose: 6.25 mg/kg/injection, schedule: Q01DX009 (ip), vehicle: Klucel (hydroxypropylcellulose) (HPC) 107 % of control and 110 % of control | dose: 12.5 mg/kg/injection, schedule: Q01DX009 (ip), vehicle: Klucel (hydroxypropylcellulose) (HPC) 102 % of control | dose: 25.0 mg/kg/injection, schedule: Q01DX009 (ip), vehicle: Klucel (hydroxypropylcellulose) (HPC) 108 % of control | [11] 105 % of control

O=C(CC(c1ccccc1)C(C(=O)O)c1ccccc1)c1ccccc1 (stereo not given)
inactive: [11] 101 % of control | [10] 92 % of control

O=C(COc1ccc(Cl)cc1)C1CSc2ccc(Br)cc21 (stereo not given)
inactive: dose: 100.0 mg/kg/injection, schedule: Q04DX003 (ip), vehicle: saline sonified 90 % of control | dose: 200.0 mg/kg/injection, schedule: Q04DX003 (ip), vehicle: saline sonified 95 % of control | dose: 400.0 mg/kg/injection, schedule: Q04DX003 (ip), vehicle: saline sonified 95 % of control

CCCP(CCC)c1ccccc1
inactive: dose: 25.0 mg/kg/injection, schedule: Q01DX009 (sc), vehicle: olive oil, sesame oil, peanut oil 108 % of control | dose: 50.0 mg/kg/injection, schedule: Q01DX009 (sc), vehicle: olive oil, sesame oil, peanut oil 95 % of control | dose: 100.0 mg/kg/injection, schedule: Q01DX009 (sc), vehicle: olive oil, sesame oil, peanut oil 95 % of control | dose: 100.0 mg/kg/injection, schedule: Q04DX003 (sc), vehicle: olive oil, sesame oil, peanut oil 96 % of control | dose: 200.0 mg/kg/injection, schedule: Q04DX003 (sc), vehicle: olive oil, sesame oil, peanut oil 96 % of control | dose: 400.0 mg/kg/injection, schedule: Q01DX009 (sc), vehicle: olive oil, sesame oil, peanut oil 92 % of control | dose: 400.0 mg/kg/injection, schedule: Q04DX003 (sc), vehicle: olive oil, sesame oil, peanut oil 123 % of control
